Measurements: ChEMBL document CHEMBL1201862, “PubChem BioAssay data set” (2004)
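Grown in 96-well plates, cells were treated for 48 hours with each compound at five concentrations. Insufficient inhibition: endpoint recorded as highest concentration tested. GI50 is the concentration that inhibits growth by half.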 The source made the active and inactive calls. Cut-off read from the data, not from the text of the source: active = GI50 up to about 1.1 µM and inactive = higher.

What was measured:
Experiment in all cases: DTP human tumour cell line panel, 48 h
TK-10 = test system: TK-10
SR = test system: SR
Hs-578T = test system: Hs-578T
HL-60 = test system: HL-60
A549 = test system: A549
HOP-62 = test system: HOP-62
CCRF-CEM = test system: CCRF-CEM
SNB-75 = test system: SNB-75
PC-3 = test system: PC-3
SK-MEL-28 = test system: SK-MEL-28
LOX IMVI = test system: LOX IMVI
OVCAR-5 = test system: OVCAR-5
NCI-H23 = test system: NCI-H23
K562 = test system: K562
OVCAR-4 = test system: OVCAR-4
OVCAR-8 = test system: OVCAR-8
SK-MEL-5 = test system: SK-MEL-5
BT-549 = test system: BT-549
UACC-257 = test system: UACC-257
SNB-19 = test system: SNB-19
COLO 205 = test system: COLO 205
HOP-92 = test system: HOP-92
EKVX = test system: EKVX
RPMI-8226 = test system: RPMI-8226
RXF 393 = test system: RXF 393
HCT-15 = test system: HCT-15
UACC-62 = test system: UACC-62
MDA-N = test system: MDA-N
U-251 = test system: U-251
SF-539 = test system: SF-539
SF-295 = test system: SF-295
NCI-H226 = test system: NCI-H226
HT-29 = test system: HT-29
SK-OV-3 = test system: SK-OV-3
CAKI-1 = test system: CAKI-1
T47D = test system: T47D
DU-145 = test system: DU-145
MCF7 = test system: MCF7
MOLT-4 = test system: MOLT-4
SK-MEL-2 = test system: SK-MEL-2
NCI-H460 = test system: NCI-H460
UO-31 = test system: UO-31
A498 = test system: A498
ACHN = test system: ACHN
MDA-MB-231 = test system: MDA-MB-231
OVCAR-3 = test system: OVCAR-3
SN12C = test system: SN12C
NCI-H522 = test system: NCI-H522
KM12 = test system: KM12
M14 = test system: M14
IGROV-1 = test system: IGROV-1
786-0 = test system: 786-0
HCT-116 = test system: HCT-116
MDA-MB-435 = test system: MDA-MB-435
SF-268 = test system: SF-268
NCI/ADR-RES = test system: NCI/ADR-RES
SW-620 = test system: SW-620
Malme-3M = test system: Malme-3M

OC1(c2ccc3ccccc3c2)c2c(c3ccccc3c3ccccc23)C2=NCCN21 (stereo unspecified)
GI50 (TK-10): 7980 nM (inactive)
GI50 (SR): 3080 nM (inactive)
GI50 (Hs-578T): 6140 nM (inactive)
GI50 (HL-60): 6460 nM (inactive)
GI50 (A549): 7100 nM (inactive)
GI50 (HOP-62): 9330 nM (inactive)
GI50 (CCRF-CEM): 4250 nM (inactive)
GI50 (SNB-75): 3110 nM (inactive)
GI50 (PC-3): 4540 nM (inactive)
GI50 (SK-MEL-28): 2120 nM (inactive)
GI50 (LOX IMVI): 2280 nM (inactive)
GI50 (OVCAR-5): 7780 nM (inactive)
GI50 (NCI-H23): 12100 nM (inactive)
GI50 (K562): 3810 nM (inactive)
GI50 (OVCAR-4): 3550 nM (inactive)
GI50 (OVCAR-8): 4440 nM (inactive)
GI50 (SK-MEL-5): 17000 nM (inactive)
GI50 (BT-549): 14700 nM (inactive)
GI50 (UACC-257): 18500 nM (inactive)
GI50 (SNB-19): 12900 nM (inactive)
GI50 (COLO 205): 1850 nM (inactive)
GI50 (HOP-92): 7180 nM (inactive)
GI50 (EKVX): 5510 nM (inactive)
GI50 (RPMI-8226): 2520 nM (inactive)
GI50 (RXF 393): 2470 nM (inactive)
GI50 (HCT-15): 4630 nM
GI50 (UACC-62): 13500 nM (inactive)
GI50 (MDA-N): 1960 nM (inactive)
GI50 (U-251): 5750 nM (inactive)
GI50 (SF-539): 5450 nM (inactive)
GI50 (SF-295): 3090 nM (inactive)
GI50 (NCI-H226): 34500 nM (inactive)
GI50 (HT-29): 2800 nM (inactive)
GI50 (SK-OV-3): 6680 nM (inactive)
GI50 (CAKI-1): 11700 nM (inactive)
GI50 (T47D): 4450 nM (inactive)
GI50 (DU-145): 16900 nM (inactive)
GI50 (MCF7): 3480 nM (inactive)
GI50 (MOLT-4): 4810 nM (inactive)
GI50 (SK-MEL-2): 7160 nM (inactive)
GI50 (NCI-H460): 4300 nM (inactive)
GI50 (UO-31): 6920 nM (inactive)
GI50 (A498): 12100 nM (inactive)
GI50 (ACHN): 8220 nM (inactive)
GI50 (MDA-MB-231): 10100 nM (inactive)
GI50 (OVCAR-3): 7210 nM (inactive)
GI50 (SN12C): 9200 nM (inactive)
GI50 (NCI-H522): 3850 nM (inactive)
GI50 (KM12): 2320 nM (inactive)
GI50 (M14): 2120 nM (inactive)
GI50 (IGROV-1): 3850 nM (inactive)
GI50 (786-0): 7500 nM (inactive)
GI50 (HCT-116): 2880 nM (inactive)
GI50 (MDA-MB-435): 2170 nM (inactive)
GI50 (SF-268): 5790 nM (inactive)
GI50 (NCI/ADR-RES): 2130 nM (inactive)
GI50 (SW-620): 3340 nM (inactive)
GI50 (Malme-3M): 10400 nM (inactive)

CC1(C)CCC(C)(C)c2c1ccc(O)c2Cc1c(O)ccc2c1C(C)(C)CCC2(C)C
GI50 (TK-10): 1980 nM (inactive)
GI50 (SR): 2700 nM (inactive)
GI50 (Hs-578T): 2840 nM (inactive)
GI50 (HL-60): 2760 nM (inactive)
GI50 (A549): 2270 nM (inactive)
GI50 (HOP-62): 2190 nM (inactive)
GI50 (CCRF-CEM): 2310 nM (inactive)
GI50 (SNB-75): 2010 nM (inactive)
GI50 (PC-3): 2000 nM (inactive)
GI50 (SK-MEL-28): 2120 nM (inactive)
GI50 (LOX IMVI): 1840 nM (inactive)
GI50 (OVCAR-5): 2250 nM (inactive)
GI50 (NCI-H23): 2040 nM (inactive)
GI50 (K562): 2190 nM (inactive)
GI50 (OVCAR-4): 1810 nM (inactive)
GI50 (OVCAR-8): 2130 nM (inactive)
GI50 (SK-MEL-5): 1870 nM (inactive)
GI50 (BT-549): 2330 nM (inactive)
GI50 (UACC-257): 1850 nM (inactive)
GI50 (SNB-19): 2280 nM (inactive)
GI50 (COLO 205): 2130 nM (inactive)
GI50 (HOP-92): 1950 nM (inactive)
GI50 (EKVX): 2930 nM (inactive)
GI50 (RPMI-8226): 1870 nM (inactive)
GI50 (RXF 393): 1870 nM (inactive)
GI50 (HCT-15): 1920 nM
GI50 (UACC-62): 2020 nM (inactive)
GI50 (MDA-N): 1920 nM (inactive)
GI50 (U-251): 1780 nM (inactive)
GI50 (SF-539): 1990 nM (inactive)
GI50 (SF-295): 2450 nM (inactive)
GI50 (NCI-H226): 1880 nM (inactive)
GI50 (HT-29): 2190 nM (inactive)
GI50 (SK-OV-3): 2300 nM (inactive)
GI50 (CAKI-1): 2150 nM (inactive)
GI50 (T47D): 1870 nM (inactive)
GI50 (DU-145): 2230 nM (inactive)
GI50 (MCF7): 1840 nM (inactive)
GI50 (MOLT-4): 2110 nM (inactive)
GI50 (SK-MEL-2): 1650 nM (inactive)
GI50 (NCI-H460): 2470 nM (inactive)
GI50 (UO-31): 1920 nM (inactive)
GI50 (A498): 1790 nM (inactive)
GI50 (ACHN): 1740 nM (inactive)
GI50 (MDA-MB-231): 1660 nM (inactive)
GI50 (OVCAR-3): 2210 nM (inactive)
GI50 (SN12C): 1820 nM (inactive)
GI50 (NCI-H522): 1970 nM (inactive)
GI50 (KM12): 1950 nM (inactive)
GI50 (M14): 1880 nM (inactive)
GI50 (IGROV-1): 1970 nM (inactive)
GI50 (786-0): 1920 nM (inactive)
GI50 (HCT-116): 2000 nM (inactive)
GI50 (MDA-MB-435): 1870 nM (inactive)
GI50 (SF-268): 2470 nM (inactive)
GI50 (NCI/ADR-RES): 2080 nM (inactive)
GI50 (SW-620): 2180 nM (inactive)
GI50 (Malme-3M): 2700 nM (inactive)
